Experimental data taken from article PMC12073298, “Design, Synthesis, and Biological Evaluation of Naphthoquinone Salts as Anticancer Agents” (Molecules, 2025).
Each block holds one compound with its values, some of them ahead of it.

Legend:
[1] = system: human endometrial cancer cells (HEC1A); test: MTT cell viability assay, HEC1A cells; type: cell-based
Experimental: (§1) The cytotoxic effects of the synthesized salt compounds were assessed against human endometrial cancer cells (HEC1A) and normal endometrial stromal cells (MAD11) using the MTT cell viability assay. BH10 was used as the reference compound.
(§2) Reagents and equipment: phosphate-buffered saline (PBS) (Sigma Aldrich, St. Louis, MO, USA), 10× Trypsin-EDTA solution (Sigma Aldrich, 59418C), Dulbecco’s Modified Eagle’s Medium (Sigma Aldrich), foetal bovine serum (FBS), and 100× penicillin-streptomycin solution (Sigma Aldrich P4333). The MTT reagent was prepared by dissolving 5 mg/mL MTT powder in sterile PBS, followed by filtration, whereas the MTT solvent contained 4 mM HCl and 0.1% Nonidet P-40 in isopropanol. Dimethyl sulfoxide (DMSO) was also sourced from Sigma Aldrich. Absorbance measurements were acquired using Kaleido 1.0 software coupled with an EnSight™ HH3400 Multimode Plate Reader (PerkinElmer, Waltham, MA, USA). HEC-1-A endometrial cancer cells were obtained from ATCC, while MAD11 endometrial stromal cells were provided by Dr. Hui Li (University of Virginia). MAD11 cells, derived from non-cancerous donors, were immortalized via human telomerase reverse transcriptase (hTERT).
(§3) Method: The methods were adapted from Byrne et al. (2014). Cells were cultured in DMEM supplemented with 10% FBS and 1% Pen-Strep solution (100 U/mL penicillin and 0.1 mg/mL streptomycin). Upon reaching ~70% confluence, the cells were washed with sterile PBS and detached using a 1× trypsin-EDTA solution. The cells were then resuspended in culture media, counted, and seeded into sterile 96-well tissue culture plates (2500 cells per well for MAD11; 5000 cells per well for HEC-1-A). The cells were incubated at 37 °C with 5% CO2 for 24 h prior to drug treatment. Drugs were serially diluted in culture medium to final concentrations of 100, 50, 25, 12.5, 6.3, 3.1, 1.6, and 0.8 µM per well and applied in triplicate. For compounds 7a–f and 15, as their IC₅₀ values were below 0.8 µM, an additional set of three biological replicates was conducted using a lower concentration range (500, 250, 125, 63, 31, 16, 8, and 4 nM). To minimize variations due to DMSO (vehicle), both drug dilutions and control wells received the same final concentration of DMSO. After 48 h of incubation at 37 °C with 5% CO2, cell viability was assessed by adding 20 µL/well of MTT reagent for 3 h. Supernatants were aspirated, and formazan crystals were dissolved in MTT solvent before absorbance was measured at 590/620 nm using an EnSight™ HH3400 Multimode Plate Reader. Cell viability was expressed as a percentage of the vehicle (DMSO-treated) control, with results reported as mean ± SEM from three independent experiments. IC50 values were determined using GraphPad Prism 9.

[2] = system: normal endometrial stromal cells (MAD11); test: MTT cell viability assay, MAD11 cells; type: cell-based, human; conditions: Homo sapiens, MAD11, 48 h, MAD11 non-cancerous cells, n = 3 biological replicates, read-out: Mean IC50 (μM) MAD11 ± SD
Experimental: as §1, §2, §3

[3] = system: human endometrial cancer cells (HEC1A); conditions: hit compound, earlier work; cited from earlier work
[4] = system: Indoleamine 2,3-dioxygenase 1 (IDO1); design: method as in ref 9-10 (a number printed in a supplementary file, which may have a reference list of its own: not looked up in the article's list); conditions: cited from earlier work
[5] = system: Hexokinase II; design: method as in ref 2-4 (a number printed in a supplementary file, which may have a reference list of its own: not looked up in the article's list); conditions: cited from earlier work
[6] = system: GLUT1; design: method as in ref 5-6 (a number printed in a supplementary file, which may have a reference list of its own: not looked up in the article's list); conditions: cited from earlier work
[7] = system: Pyruvate Kinase M2 (PKM2); design: method as in ref 7-8 (a number printed in a supplementary file, which may have a reference list of its own: not looked up in the article's list); conditions: cited from earlier work
[8] = system: Survivin suppression (indirect); design: method as in ref 13 (a number printed in a supplementary file, which may have a reference list of its own: not looked up in the article's list); conditions: cited from earlier work
[9] = system: receptor-interacting protein kinase 2 (RIPK2); design: method as in ref 11-12 (a number printed in a supplementary file, which may have a reference list of its own: not looked up in the article's list); conditions: cited from earlier work
[10] = reported target as listed, test system not given, read-out: IC50 (Table S1)

IC50 ([1]; Homo sapiens, HEC-1-A, 48 h, HEC1A cells, MTT, 48 h, n = 3 biological replicates, read-out: Mean IC50 (μM) HEC1A ± SD): 11.8 ± 5.19 µM
SMILES: O=C1C(Cl)=C(NCCN2CCOCC2)C(=O)c2ccccc21 [BH10, reference compound]
Selectivity Ratio ([1]; IC50 value from MAD11 cells divided by the IC50 value from HEC1A cells): 2.38
IC50 [2]: 28.2 ± 12.2 µM
selective toxicity (IC50 value in non-cancerous cells/IC50 value of cancer cells) [3]: 2.38

SMILES: CC(C)=CCC1=C(O)C(=O)c2ccccc2C1=O [Lapachol]
Selectivity Notes (Table S1) ([4]; Table S1 comparison): Limited
IC50 [4, 10]: 25 µM

SMILES: O=C(O)c1nn(Cc2ccc(Cl)cc2Cl)c2ccccc12 [Lonidamine]
Selectivity Notes (Table S1) ([5]; Table S1 comparison): Low
IC50 [5, 10]: 170 µM

SMILES: O=C(CCc1ccc(O)cc1)c1c(O)cc(O)cc1O [Phloretin]
Selectivity Notes (Table S1) ([6]; Table S1 comparison): Limited
IC50 [6, 10]: ~2 µM

SMILES: CC(C)=CC[C@@H](O)C1=CC(=O)c2c(O)ccc(O)c2C1=O [Shikonin]
Selectivity Notes (Table S1) ([7]; Table S1 comparison): Low
IC50 [7, 10]: 19.9 µM

SMILES: COCCn1c2c([n+](Cc3cnccn3)c1C)C(=O)c1ccccc1C2=O [YM155]
Selectivity Notes (Table S1) ([8]; Table S1 comparison): 18
IC50 [8, 10]: 0.0137 µM

SMILES: Cc1n(Cc2ccccc2)c2c([n+]1Cc1ccc(F)cc1)C(=O)c1ccccc1C2=O [cRIPGBM]
Selectivity Notes (Table S1) ([9]; Table S1 comparison): Variable, brain-specific
IC50 [9, 10]: 0.027 µM
